{"source": "patent US6733782B1", "about": "“Core tablet for controlled release of gliclazide after oral administration” (Les Laboratories Servier, priority 1999, dated 2004)", "experiment": "solubility of the active ingredient according to pH (FIG. 1)", "assay_type": "physicochemical", "details": "at acid pHs; increases as pH rises (FIG. 1)", "from_the_text": "The main aim of the invention was to obtain an oral form in which the rate of release of the active ingredient is controlled and reproducible. In fact, in the current form the dissolution of the active ingredient varies greatly according to pH. This characteristic, associated with gliclazide itself, poses absorption problems for the active ingredient. The solubility is very weak at acid pHs and increases as pH rises.\nFIG. 1 represents the phenomenon of the solubility of the active ingredient varying according to pH.", "data": [{"smiles": "Cc1ccc(S(=O)(=O)NC(=O)NN2CC3CCCC3C2)cc1", "note": "(stereo not shown) [gliclazide, Gliclazide]", "values": [{"measurement": "solubility of the active ingredient", "value": "very weak"}]}]}
